Reference: US8048825B2, “Haloalkylsulfonanilide derivatives or salt thereof, herbicide comprising the derivatives as active ingredient, and use of the herbicide” (Nihon Nohyaku Co., Ltd., priority 2006, dated 2011)

Key:
Format in all cases: in vivo
Lindernia procumbens [1] = experiment: Herbicidal efficacy on paddy field weeds of pre-emergence stage (Pre), Test Example 1; settings: 1000 g/ha as active ingredient, examined after 21 days
In short: (§1)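 Pre-emergence paddy test: 1000 g/ha active ingredient, formulated and water-diluted, dropped onto 5 cm floodwater one day after sowing both weeds in clay loam. After 21 days in greenhouse, inhibition relative to untreated control rated on 0 (0%) to 5 (100%) scale.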

Scirpus juncoides [2] = experiment: as above; settings: 1000 g/ha as active ingredient, examined after 21 days
In short: as §1

Echinochloa crus-galli = experiment: Herbicidal effect on paddy field weeds of post-emergence stage (Post), Test Example 2; settings: one-leaf stage, 1000 g/ha as active ingredient, examined after 21 days
In short: (§2)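 Post-emergence paddy test: formulated compound added to 5 cm standing water at 1000 g/ha a.i. when weeds reached one-leaf stage in clay loam pots in greenhouse. Growth inhibition rated 21 days later versus untreated control on a 0 (0%) to 5 (100%) scale.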

Lindernia procumbens [3] = experiment: as above; settings: one-leaf stage, 1000 g/ha as active ingredient, examined after 21 days
In short: as §2

Scirpus juncoides [4] = experiment: as above; settings: one-leaf stage, 1000 g/ha as active ingredient, examined after 21 days
In short: as §2

| Structure (SMILES) | Lindernia procumbens pre (herbicidal effect) (Lindernia procumbens [1]) | Scirpus juncoides pre (herbicidal effect) (Scirpus juncoides [2]) | Echinochloa crus-galli post (herbicidal effect) (Echinochloa crus-galli) | Lindernia procumbens post (herbicidal effect) (Lindernia procumbens [3]) | Scirpus juncoides post (herbicidal effect) (Scirpus juncoides [4]) |
| --- | --- | --- | --- | --- | --- |
| CCOC(=O)N(c1ccccc1CN1CCC(C)(c2ccccc2F)OC1=O)S(=O)(=O)C(F)(F)F (racemic) [Compound 1-430] | 5 (100% herbicidal effect, phytotoxicity) | 5 (100% herbicidal effect, phytotoxicity) | 4 (90%-99% herbicidal effect, phytotoxicity) | 5 (100% herbicidal effect, phytotoxicity) | 4 (90%-99% herbicidal effect, phytotoxicity) |
| COC(=O)N(c1ccccc1CN1CCC(C)(c2c(F)cccc2F)OC1=O)S(=O)(=O)C(F)(F)F (racemic) [Compound 1-440] | 5 (100% herbicidal effect, phytotoxicity) | 4 (90%-99% herbicidal effect, phytotoxicity) | 4 (90%-99% herbicidal effect, phytotoxicity) | 5 (100% herbicidal effect, phytotoxicity) | 4 (90%-99% herbicidal effect, phytotoxicity) |
| CCOC(=O)N(c1ccccc1CN1CCC(C)(c2c(F)cccc2F)OC1=O)S(=O)(=O)C(F)(F)F (racemic) [Compound 1-441] | 5 (100% herbicidal effect, phytotoxicity) | 5 (100% herbicidal effect, phytotoxicity) | 5 (100% herbicidal effect, phytotoxicity) | 5 (100% herbicidal effect, phytotoxicity) | 4 (90%-99% herbicidal effect, phytotoxicity) |
| CCC1(C(C)C)CCN(Cc2ccccc2NS(=O)(=O)C(F)(F)F)C(=O)O1 (racemic) [Compound 1-450] | 5 (100% herbicidal effect, phytotoxicity) | 5 (100% herbicidal effect, phytotoxicity) | 4 (90%-99% herbicidal effect, phytotoxicity) | 5 (100% herbicidal effect, phytotoxicity) | 4 (90%-99% herbicidal effect, phytotoxicity) |
| CCOC(=O)N(c1ccccc1CN1CCC(CC)(C(C)C)OC1=O)S(=O)(=O)C(F)(F)F (racemic) [Compound 1-452] | 5 (100% herbicidal effect, phytotoxicity) | 5 (100% herbicidal effect, phytotoxicity) | 4 (90%-99% herbicidal effect, phytotoxicity) | 5 (100% herbicidal effect, phytotoxicity) | 4 (90%-99% herbicidal effect, phytotoxicity) |
| CCC1(C(C)C)CCN(Cc2ccccc2N(C(=O)OCC(C)C)S(=O)(=O)C(F)(F)F)C(=O)O1 (racemic) [Compound 1-455] | 5 (100% herbicidal effect, phytotoxicity) | 5 (100% herbicidal effect, phytotoxicity) | 5 (100% herbicidal effect, phytotoxicity) | 5 (100% herbicidal effect, phytotoxicity) | 4 (90%-99% herbicidal effect, phytotoxicity) |
| CCOC(=O)N(c1ccccc1CN1CCC(C)(Cc2ccccc2F)OC1=O)S(=O)(=O)C(F)(F)F (racemic) [Compound 1-463] | 5 (100% herbicidal effect, phytotoxicity) | 5 (100% herbicidal effect, phytotoxicity) | 4 (90%-99% herbicidal effect, phytotoxicity) | 5 (100% herbicidal effect, phytotoxicity) | 4 (90%-99% herbicidal effect, phytotoxicity) |
| CCCC1(CC)CCN(Cc2ccccc2NS(=O)(=O)C(F)(F)F)C(=O)O1 (racemic) [Compound 1-494] | 5 (100% herbicidal effect, phytotoxicity) | 5 (100% herbicidal effect, phytotoxicity) | 4 (90%-99% herbicidal effect, phytotoxicity) | 5 (100% herbicidal effect, phytotoxicity) | 4 (90%-99% herbicidal effect, phytotoxicity) |
| CCCC1(CC)CCN(Cc2ccccc2N(C(=O)OCC)S(=O)(=O)C(F)(F)F)C(=O)O1 (racemic) [Compound 1-496] | 5 (100% herbicidal effect, phytotoxicity) | 5 (100% herbicidal effect, phytotoxicity) | 4 (90%-99% herbicidal effect, phytotoxicity) | 5 (100% herbicidal effect, phytotoxicity) | 4 (90%-99% herbicidal effect, phytotoxicity) |
| CCCC1(CC)CCN(Cc2ccccc2N(C(=O)OCC(C)C)S(=O)(=O)C(F)(F)F)C(=O)O1 (racemic) [Compound 1-499] | 5 (100% herbicidal effect, phytotoxicity) | 5 (100% herbicidal effect, phytotoxicity) | 4 (90%-99% herbicidal effect, phytotoxicity) | 5 (100% herbicidal effect, phytotoxicity) | 4 (90%-99% herbicidal effect, phytotoxicity) |
| CCCC1(CC)CCN(Cc2ccccc2N(C(=O)Oc2ccccc2)S(=O)(=O)C(F)(F)F)C(=O)O1 (racemic) [Compound 1-501] | 5 (100% herbicidal effect, phytotoxicity) | 5 (100% herbicidal effect, phytotoxicity) | 5 (100% herbicidal effect, phytotoxicity) | 5 (100% herbicidal effect, phytotoxicity) | 4 (90%-99% herbicidal effect, phytotoxicity) |
| O=C1OCCCCN1Cc1ccccc1NS(=O)(=O)C(F)(F)F [2-1] | 4 (90%-99% herbicidal effect, phytotoxicity) | 4 (90%-99% herbicidal effect, phytotoxicity) | 4 (90%-99% herbicidal effect, phytotoxicity) | 4 (90%-99% herbicidal effect, phytotoxicity) | 4 (90%-99% herbicidal effect, phytotoxicity) |
| CCOC(=O)N(c1ccccc1CN1CCCCOC1=O)S(=O)(=O)C(F)(F)F [2-3] | 4 (90%-99% herbicidal effect, phytotoxicity) | 4 (90%-99% herbicidal effect, phytotoxicity) | 4 (90%-99% herbicidal effect, phytotoxicity) | 4 (90%-99% herbicidal effect, phytotoxicity) | 4 (90%-99% herbicidal effect, phytotoxicity) |
| CCCOC(=O)N(c1ccccc1CN1CCCCOC1=O)S(=O)(=O)C(F)(F)F [2-4] | 4 (90%-99% herbicidal effect, phytotoxicity) | 4 (90%-99% herbicidal effect, phytotoxicity) | 4 (90%-99% herbicidal effect, phytotoxicity) | 4 (90%-99% herbicidal effect, phytotoxicity) | 4 (90%-99% herbicidal effect, phytotoxicity) |
| CCCCOC(=O)N(c1ccccc1CN1CCCCOC1=O)S(=O)(=O)C(F)(F)F [2-5] | 4 (90%-99% herbicidal effect, phytotoxicity) | 4 (90%-99% herbicidal effect, phytotoxicity) | 4 (90%-99% herbicidal effect, phytotoxicity) | 4 (90%-99% herbicidal effect, phytotoxicity) | 4 (90%-99% herbicidal effect, phytotoxicity) |
| CC(C)COC(=O)N(c1ccccc1CN1CCCCOC1=O)S(=O)(=O)C(F)(F)F [2-6] | 4 (90%-99% herbicidal effect, phytotoxicity) | 4 (90%-99% herbicidal effect, phytotoxicity) | 4 (90%-99% herbicidal effect, phytotoxicity) | 4 (90%-99% herbicidal effect, phytotoxicity) | 4 (90%-99% herbicidal effect, phytotoxicity) |
| CCOC(=O)N(c1ccccc1CN1CCCCOC1=S)S(=O)(=O)C(F)(F)F [2-14] | 4 (90%-99% herbicidal effect, phytotoxicity) | 4 (90%-99% herbicidal effect, phytotoxicity) | 4 (90%-99% herbicidal effect, phytotoxicity) | 4 (90%-99% herbicidal effect, phytotoxicity) | 4 (90%-99% herbicidal effect, phytotoxicity) |
| CCCCOC(=O)N(c1ccccc1CN1CCCOC1=O)S(=O)(=O)C(F)(F)F [Compound 1-5] | 4 (90%-99% herbicidal effect, phytotoxicity) | 4 (90%-99% herbicidal effect, phytotoxicity) | 4 (90%-99% herbicidal effect, phytotoxicity) | 4 (90%-99% herbicidal effect, phytotoxicity) | 4 (90%-99% herbicidal effect, phytotoxicity) |
| CC(C)COC(=O)N(c1ccccc1CN1CCCOC1=O)S(=O)(=O)C(F)(F)F [Compound 1-6] | 4 (90%-99% herbicidal effect, phytotoxicity) | 4 (90%-99% herbicidal effect, phytotoxicity) | 4 (90%-99% herbicidal effect, phytotoxicity) | 4 (90%-99% herbicidal effect, phytotoxicity) | 4 (90%-99% herbicidal effect, phytotoxicity) |
